According to patent US12325677B2, “Carboxylic acid-type lipid, and lipid particle and lipid membrane each comprising carboxylic acid-type lipid” (Toray Industries, Inc., priority 2018, dated 2025):

Columns and labels:
[1] = Thickness of lipid membrane from SEM observation image; format: physicochemical; conditions: lipid supported on fiber sheet base (hemostatic materials E1 to E4), SEM ×5,000
Protocol: The thickness of the lipid membrane is preferably 10 to 1,000 nm, more preferably 30 to 500 nm, and still more preferably 60 to 240 nm. The method of measuring the lipid membrane is as follows. The lipid membrane is observed with a scanning electron microscope (SEM). The thickness of five points optionally selected in the SEM observation image is measured, and the mean is regarded as the thickness of the lipid membrane.
An SEM observation image (×1,000) of the base complex before supporting a lipid is shown in FIG. 5, and SEM observation images (×1,000) of the hemostatic materials E1 to E4 are shown in FIGS. 6 to 9, respectively.

[2] = tested on: guinea pig-derived PRP; test: Evaluation of platelet aggregation capacity of hemostatic material (in vitro), protein assay of attached platelets; format: cell-based; conditions: lipid supported on the base part in place of DHSG, Asp-DHSG, Glu-DHSG and AG-DHSG
Protocol: From the hemostatic materials D1, D2, D3 and D4, a base part (fiber sheet part) supporting DHSG, Asp-DHSG, Glu-DHSG and AG-DHSG, respectively, was taken out. To a 12-well plate, the base part (fiber sheet part) that was taken out and 1 mL of guinea pig-derived PRP (2.0×10^5/μL) prepared by the abovementioned method were added. Thereafter, ADP ([…], 100 μL) that activates platelets was added, and after allowing to stand at room temperature for 5 minutes, the mixture was washed with 1 mL of DPBS twice. Thereafter, to dissolve platelets attached to the base part (fiber sheet part), 500 μL of 0.5% Triton X was added, followed by allowing to stand at room temperature for 1 hour to obtain a platelet lysate. To a 96-well plate, […] of the platelet lysate prepared by the abovementioned method and 150 μL of PIERCE (trademark) 660 nm Protein Assay Kit were added, followed by allowing to stand for 5 minutes. By measuring absorbance at 660 nm using a microplate reader, proteins were quantitatively determined, and the determination results were used as an index of the count of platelets which were not washed away and were attached to the fiber sheet. The results in FIG. 4 are relative values when the platelet count in using the hemostatic material D1 is regarded as 1. […]

| SMILES | Thickness of the lipid membrane [1] [nm] | Platelets detected on the base part (fiber sheet part) as a result of washing [2] |
| --- | --- | --- |
| CCCCCCCCCCCCCCCCOC(=O)CCC(NC(=O)CCC(=O)NC(CCC(=O)NC(CC(=O)O)C(=O)O)C(=O)NC(CC(=O)O)C(=O)O)C(=O)OCCCCCCCCCCCCCCCC (centres unmarked) [AG-DHSG] | 124 | – |
| CCCCCCCCCCCCCCCCOC(=O)CCC(NC(=O)CCC(=O)NC(CC(=O)O)C(=O)O)C(=O)OCCCCCCCCCCCCCCCC (centres unmarked) [Asp-DHSG] | 153 | – |
| CCCCCCCCCCCCCCCCOC(=O)CCC(NC(=O)CCC(=O)O)C(=O)OCCCCCCCCCCCCCCCC [DHSG, 1,5-Dihexadecyl-N-Succinyl-L-Glutamate, reference compound] | 131 | – |
| CCCCCCCCCCCCCCCC(=O)OC[C@H](COP(=O)([O-])OCC[N+](C)(C)C)OC(=O)CCCCCCCCCCCCCCC [DPPC, 1,2-dipalmitoyl-sn-glycero-3-phosphatidylcholine] | – | no platelets were detected |
| CCCCCCCCCCCCCCCCOC(=O)CCC(NC(=O)CCC(=O)NC(CCC(=O)O)C(=O)O)C(=O)OCCCCCCCCCCCCCCCC (centres unmarked) [Glu-DHSG] | 187 | – |
